The results in this text go back to ChEMBL document CHEMBL1201862, “PubChem BioAssay data set” (2004).

Structures are written as SMILES.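 Dose response: 5 concentrations. Exposure: 48 h. Format: 96-well plates. Endpoint: linear interpolation; highest concentration if not reached. At the GI50, growth is halved.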 The source made the active and inactive calls. No stated cut-off is given here; in the data, active = GI50 up to about 1.1 µM and inactive = higher. Bounds are passed on as bounds.

Some test systems named below: MDA-N; SN12C; NCI-H23; OVCAR-8; EKVX; SF-295; OVCAR-4; 786-0; A549; HCT-15; PC-3; KM12; OVCAR-3; T47D; SK-OV-3; UACC-62; SR; IGROV-1; LOX IMVI; MDA-MB-231.
Experiment in all cases: growth of human tumour cells (NCI), 48 h

Take `CC(C)(C)SC1=CCC[C@@H](P(=O)(c2ccccc2)c2ccccc2)[C@@H]2CCC[C@@H]12`: the GI50 with MDA-N was 16.1 µM (inactive); in the assay with SN12C, 15.7 µM (inactive); with NCI-H23, 17.2 µM (inactive); in the assay on OVCAR-8, 18.3 µM (inactive); with EKVX, 18.6 µM (inactive); with SF-295 it was 15.1 µM (inactive). For the same molecule, the GI50 in the assay with OVCAR-4 was 14.3 µM (inactive); with 786-0, 16.7 µM (inactive); in the assay on A549, 17.2 µM (inactive); with HCT-15, 16.6 µM; in the assay on PC-3, 14 µM (inactive); in the assay with KM12, 16.3 µM (inactive). Besides, the GI50 is 17 µM (inactive) in the assay with OVCAR-3; 14 µM (inactive) in the assay on T47D; 15.9 µM (inactive) in the assay with SK-OV-3; 12.4 µM (inactive) with UACC-62; 17 µM (inactive) in the assay with SR; 17.2 µM (inactive) in the assay on IGROV-1. The GI50 in the assay with LOX IMVI was 17.5 µM (inactive).
`O=C(N/N=C/c1ccccc1)c1c(-c2cccnc2)cnc2ccccc12`: the GI50 in the assay on MDA-N is 29.2 µM (inactive); with SN12C, > 100 µM (inactive); with NCI-H23 it was > 100 µM (inactive); with OVCAR-8 it was > 100 µM (inactive); with EKVX it was > 100 µM (inactive); in the assay with SF-295 it was 12 µM (inactive). The GI50 in the assay with OVCAR-4 was > 100 µM (inactive); in the assay on 786-0 it was > 100 µM (inactive); with A549, > 100 µM (inactive); with HCT-15, 48 µM; in the assay on PC-3, > 100 µM (inactive); with KM12, 33 µM (inactive). Also, the GI50 in the assay with OVCAR-3 is > 100 µM (inactive); with SK-OV-3, 84.5 µM (inactive); with UACC-62, 79.8 µM (inactive); in the assay with SR, 77.1 µM (inactive); in the assay on IGROV-1 it was 58.7 µM (inactive).
As for `CC1(C)CSCC(C)(C)C(=N/N)/C1=N\N`, the GI50 in the assay on MDA-N, in the assay with SN12C, in the assay on NCI-H23, with OVCAR-8, in the assay with EKVX and with SF-295 was > 100 µM (inactive) in each case. Besides, the GI50 in the assay with 786-0 was > 100 µM (inactive); in the assay on A549, > 100 µM (inactive); with HCT-15, over 100 µM; with PC-3, > 100 µM (inactive); with KM12, > 100 µM (inactive); in the assay with OVCAR-3, > 100 µM (inactive). In addition, the GI50 in the assay with T47D, with SK-OV-3, with UACC-62, in the assay on SR, in the assay with IGROV-1 and in the assay with LOX IMVI was > 100 µM (inactive) each time.
`CC(C)=C[C@@H]1C[C@H](C)c2c(O)cc(C)c3c2C1=C(C)C(=O)C3=O` [ELISABATIN A]: the GI50 in the assay with MDA-N was 16.3 µM (inactive); in the assay on SN12C, 15 µM (inactive); in the assay with NCI-H23, 13.5 µM (inactive); in the assay on OVCAR-8, 16.9 µM (inactive); in the assay on EKVX, 14.3 µM (inactive); in the assay on SF-295, 14.7 µM (inactive). Besides, the GI50 in the assay with OVCAR-4 was 10.9 µM (inactive); with 786-0 it was 15.9 µM (inactive); in the assay on A549, 10.1 µM (inactive); in the assay on HCT-15 it was 13.6 µM; in the assay on PC-3, 10.5 µM (inactive); in the assay with KM12, 15.6 µM (inactive). Moreover, the GI50 is 14.5 µM (inactive) in the assay on OVCAR-3; 15.6 µM (inactive) in the assay with MDA-MB-231; 16.7 µM (inactive) in the assay on SK-OV-3; 14.7 µM (inactive) in the assay on UACC-62; 16.7 µM (inactive) with IGROV-1; 16.3 µM (inactive) in the assay with LOX IMVI.
`Cn1cc(C=C(C#N)C#N)c(=O)n(C)c1=O`: the GI50 in the assay with MDA-N, in the assay with SN12C, in the assay on NCI-H23, in the assay on OVCAR-8, in the assay on EKVX and with SF-295 was > 100 µM (inactive) throughout. The GI50 was > 100 µM (inactive) in the assay with OVCAR-4; > 100 µM (inactive) in the assay with 786-0; > 100 µM (inactive) with A549; over 100 µM with HCT-15; > 100 µM (inactive) in the assay on PC-3; > 100 µM (inactive) with KM12. The GI50 in the assay with OVCAR-3, with MDA-MB-231, in the assay on T47D, with SK-OV-3, in the assay with UACC-62 and in the assay on IGROV-1 was > 100 µM (inactive) in each case. Further, the GI50 in the assay on LOX IMVI was > 100 µM (inactive).
Consider `CCCc1cn2c(/C=N/N=C(N)N)c(-c3c(OC)ccc(OC)c3[N+](=O)[O-])nc2s1`, for which the GI50 with SN12C is 14.2 µM (inactive); with NCI-H23, 10.9 µM (inactive); in the assay with OVCAR-8 it was 14.6 µM (inactive); with EKVX it was 18 µM (inactive); with SF-295, 14.1 µM (inactive); in the assay on OVCAR-4, 20.2 µM (inactive). Besides, the GI50 in the assay with 786-0 was 9.89 µM (inactive); in the assay with A549 it was 19.4 µM (inactive); with HCT-15 it was 18.2 µM; in the assay on PC-3, 9.59 µM (inactive); with KM12, 3.16 µM (inactive); with OVCAR-3 it was 4.69 µM (inactive). Further, the GI50 with MDA-MB-231 was 4.07 µM (inactive); with T47D, 3.7 µM (inactive); with SK-OV-3 it was 18.1 µM (inactive); in the assay on UACC-62, 8.24 µM (inactive); with SR, 2.03 µM (inactive); with IGROV-1, 9.89 µM (inactive). The GI50 in the assay with LOX IMVI was 3.02 µM (inactive).
For the molecule `NC(Cc1n[nH]c2ccccc12)C(=O)O` (stereo not given), the GI50 with SN12C, with NCI-H23, with OVCAR-8, in the assay with EKVX, in the assay with SF-295 and in the assay on OVCAR-4 was > 100 µM (inactive) in each case. The GI50 with 786-0 was > 100 µM (inactive); with A549 it was > 100 µM (inactive); with HCT-15 it was over 100 µM; in the assay on PC-3, > 100 µM (inactive); with KM12 it was > 100 µM (inactive); in the assay with OVCAR-3 it was > 100 µM (inactive). The GI50 in the assay with MDA-MB-231, in the assay on T47D, in the assay on SK-OV-3, in the assay on UACC-62, in the assay on SR and with IGROV-1 was > 100 µM (inactive) in each case. In the assay with LOX IMVI, the GI50 was > 100 µM (inactive).
For `Cc1ccc(S(=O)(=O)NC(CN)C(=O)O)cc1` (stereo not given), the GI50 with MDA-N, in the assay on NCI-H23, in the assay on OVCAR-8, in the assay with EKVX, with SF-295 and with OVCAR-4 was > 100 µM (inactive) in each case. Besides, the GI50 was > 100 µM (inactive) in the assay with 786-0; > 100 µM (inactive) in the assay with A549; over 100 µM in the assay on HCT-15; > 100 µM (inactive) in the assay on PC-3; > 100 µM (inactive) with KM12; > 100 µM (inactive) in the assay on OVCAR-3. Also, the GI50 with MDA-MB-231, with T47D, in the assay with SK-OV-3, in the assay on UACC-62, with IGROV-1 and with LOX IMVI was > 100 µM (inactive) in each case.
For the molecule `CN(C)CCn1c(=O)oc2cc(C(=O)CN3CCOCC3)ccc21`, the GI50 with MDA-N, with SN12C, with NCI-H23, in the assay on OVCAR-8, with EKVX and in the assay with SF-295 was > 100 µM (inactive) each time. Besides, the GI50 in the assay on 786-0 was > 100 µM (inactive); in the assay with HCT-15, over 100 µM; in the assay with PC-3, > 100 µM (inactive); with KM12, > 100 µM (inactive); with OVCAR-3 it was > 100 µM (inactive); in the assay on MDA-MB-231 it was > 100 µM (inactive). The GI50 in the assay on SK-OV-3, with UACC-62, in the assay with SR, in the assay with IGROV-1 and in the assay on LOX IMVI was > 100 µM (inactive) in each case.
With `CCOC(=O)C(C)c1nc2cc(F)c(F)cc2[nH]c1=O` (stereo not given), the GI50 with MDA-N, in the assay on SN12C, with NCI-H23, in the assay with OVCAR-8, with EKVX and in the assay on SF-295 was > 100 µM (inactive) in each case. Also, the GI50 in the assay on OVCAR-4 is > 100 µM (inactive); with 786-0 it was > 100 µM (inactive); in the assay on A549, > 100 µM (inactive); in the assay with HCT-15 it was over 100 µM; with PC-3 it was > 100 µM (inactive); in the assay on KM12, > 100 µM (inactive). For the same molecule, the GI50 with OVCAR-3 was > 100 µM (inactive); in the assay on MDA-MB-231, > 100 µM (inactive); in the assay on T47D it was 22.9 µM (inactive); in the assay on SK-OV-3, > 100 µM (inactive); with UACC-62 it was > 100 µM (inactive); with LOX IMVI it was > 100 µM (inactive).
Regarding `CC(C)CC1N=C(OCc2ccccc2)OC1=O` (stereo not given), the GI50 in the assay with MDA-N, in the assay with SN12C, in the assay on NCI-H23, in the assay with OVCAR-8, in the assay on EKVX and in the assay with SF-295 was > 100 µM (inactive) throughout. The GI50 with OVCAR-4 was > 100 µM (inactive); in the assay on 786-0, > 100 µM (inactive); in the assay on A549 it was > 100 µM (inactive); with HCT-15, over 100 µM; in the assay on PC-3, > 100 µM (inactive); with KM12 it was > 100 µM (inactive). For the same molecule, the GI50 with OVCAR-3, in the assay on MDA-MB-231, with T47D, in the assay with SK-OV-3, in the assay on IGROV-1 and with LOX IMVI was > 100 µM (inactive) in each case.
